Eight compounds from patent US20130178523A1, “ANTI-CANCER COMPOSITIONS AND METHODS” (THE PENN STATE RESEARCH FOUNDATION, priority 2007, published 2013) can be followed below.

The subject of series [1] is UACC 903 melanoma cells. The series is described as follows: Tumor development in nude mice, subcutaneous UACC 903, i.p. treatment. The note with it: for melanoma tumor volume: 0.76 μmoles (3 ppm selenium) i.p. thrice per week, day 24, doses 3× lower than isothiocyanates; for tumor burden: UACC 903.
In series [2] the test system is UACC 903 melanoma cells. Description: MTS cell viability assay, UACC 903. The note with it: Homo sapiens, UACC-903, 24 h. (In general: Tetrazolium dyes change colour on reduction, which living cells bring about.)
The subject of a further series is WM115 melanoma cells. The series is described as follows: MTS cell viability assay, WM115. The note with it: Homo sapiens, WM-115, 24 h.
The subject of another series is T-98-G. Description: MTS assay, glioblastoma cells. The note with it: Homo sapiens, T98G, 24 h.
For a further series, the system named is Caco-2. Description: MTS assay, colon cancer cells. The note with it: Homo sapiens, Caco-2, 24 h.
The subject of the next series is HT-1080. The series is described as follows: MTS assay, fibrosarcoma cells. The note with it: Homo sapiens, HT-1080, 24 h.
Another series deals with PC-3. Description: MTS assay, prostate cancer cells. The note with it: Homo sapiens, PC-3, 24 h.
Series [3] relates to 1205 Lu melanoma cells. Description: MTS cell viability assay, 1205 Lu. The note with it: Homo sapiens, 24 h.
A further series relates to MDA-MB-231. Description: MTS assay, breast cancer cells. The note with it: Homo sapiens, MDA-MB-231, 24 h.
In a further series the test system is Akt signaling pathway. Description: Western blot of Akt signaling pathway in cultured melanoma cells (FIG. 9). The note with it: 24 hours.
The test system of series [4] is UACC 903 cells. The series is described as follows: BrdU ELISA cellular proliferation. The format is cell-based, human. The note with it: 24 hours; for proliferative potential with increasing concentrations: 5, 10, 15 μM. The protocol:
Proliferation rate is measured using a BrdU ELISA kit (Roche Applied Sciences, Indianapolis, Ind.).
BrdUrd is used to label cells for 4-6 hours. At 15 μM concentration, ISC-4 and ISC-6 reduced UACC 903 cellular proliferative potential by ˜80-90% compared to controls. Results represent the average of 3 independent experiments; bars represent SEM. The average value is represented as the percentage of control DMSO treated cells.
A general note: Incorporation of labelled thymidine or its analogues reports DNA synthesis.

The test system of series [5] is UACC 903 cells. The series is described as follows: Cell cycle analysis (propidium iodide, FACScan). The note with it: 24 hours.
In series [6] the test system is UACC 903 cells. The series is described as follows: Apo-ONE caspase-3/7 apoptosis assay. The note with it: 24 hours; for cellular apoptosis with increasing concentrations (caspase-3/7 activity, words): 5, 10, 15 μM. The format is cell-based, human. Here is the method: Apoptosis rates are measured using an Apo-ONE Homogenous caspase-3/7 Assay kit (Promega Corporation, Madison, Wis.).
The isoselenocyanate compounds promote apoptosis in melanoma cells. […] The graphs in FIGS. 3A and 3B show fold increase in caspase-3/7 activity relative to DMSO vehicle treated cells on the x-axis. Results represent average of 3 independent experiments. Bars indicate SEM.

Series [7] concerns 1205 Lu melanoma cells. The series is described as follows: Tumor development in nude mice, subcutaneous 1205 Lu, i.p. treatment. The series is classed as in vivo. The note with it: 0.76 μmoles i.p. thrice per week. The text has this: (Monday, Wednesday and Friday).
The nature of series [8]: Toxicity assessments in nude mice (blood parameters, histology). The series is classed as in vivo. The text has this: Animals are sacrificed by CO2 asphyxiation and blood collected from each animal in plasma separator tubes with lithium heparin (BD Microtainer, BD, Franklin Lakes, N.J.) following cardiac puncture and analyzed for AST (aspartate aminotransferase), ALT, (alanyl aminotransferase), alkaline phosphatase, glucose and creatinine to ascertain liver, heart, kidney and pancreas related toxicity. For morphological examination of blood cells, whole blood is collected in microtainer tubes containing K2EDTA (BD Microtainer, BD, Franklin Lakes, N.J.) and RBC, WBC, lymphocytes, monocytes, eosinophils, platelets, total hemoglobin and hematocrit percentage analyzed. Blood is also microscopically examined for segregates, polychromatin bodies, and smudge cells. A portion of liver, heart, kidney, spleen, intestine pancreas and adrenal from each animal is formalin fixed and paraffin-embedded to examine toxicity-related changes in cell or organ morphology by H&E staining.

[9] abbreviates: 0.76 μmoles i.p. thrice per week.

The IC50 is the concentration needed to halve the response being measured. A lower IC50 goes with higher potency. `[Se]=C=NCCc1ccccc1` [ISC-2, Phenylethyl Isoselenocyanate]: the “melanoma tumor volume” value in the series on UACC 903 melanoma cells [1] is on record as “reduce tumor volume”. The IC50 in the series on UACC 903 melanoma cells [2] is 12 µM; in the series with WM115 melanoma cells, 8 µM; with T-98-G, 24 ± 1 µM; in the series with Caco-2, 11 ± 1 µM; in the series with HT-1080, 12 ± 3 µM; in the series with PC-3, 16 ± 1 µM. Besides, the IC50 turned out to be 18 µM in the series with 1205 Lu melanoma cells [3] and 20 ± 3 µM in the series with MDA-MB-231.
For `[Se]=C=NCCCCCCc1ccccc1` [ISC-6, Phenylhexyl Isoselenocyanate], the “concentration completely inhibiting the Akt3 pathway (Western blot)” value in the series on Akt signaling pathway stood at 10 µM. Further, in the series with UACC 903 melanoma cells [1], the “melanoma tumor volume” value is given as “reduce tumor volume”. For the same compound, the IC50 was found to be 10 ± 1 µM in the series on UACC 903 melanoma cells [2]; 7 µM in the series with WM115 melanoma cells; 23 ± 2 µM in the series on T-98-G; 10 ± 1 µM in the series on Caco-2; 12 ± 1 µM with HT-1080; 14 ± 1 µM in the series on PC-3. In addition, the figures for the IC50 in the series with 1205 Lu melanoma cells [3] and with MDA-MB-231 were 7 µM and 22 ± 2 µM, respectively. Also, the “proliferative potential with increasing concentrations” value with UACC 903 cells [4] was “decreased proliferative potential”. For the same compound, in the series on UACC 903 cells [4] (5-15 μM), the “fold more effective than PBITC or PHITC at inhibiting cellular proliferation” value is ~2 fold. The G0/G1 cell population in the series on UACC 903 cells [5] (5 μM) is 56.8; in the series with UACC 903 cells [5] (10 μM), 44.9; in the series on UACC 903 cells [5] (15 μM), 41.6. Further, the G2/M cell population in the series on UACC 903 cells [5] (5 μM) is listed as 13.5; with UACC 903 cells [5] (10 μM), 24.5; in the series with UACC 903 cells [5] (15 μM), 26.1. Moreover, the S cell population with UACC 903 cells [5] (5 μM) is recorded as 31.5; in the series with UACC 903 cells [5] (10 μM), 30.5; in the series with UACC 903 cells [5] (15 μM), 32.2. The subG0/G1 cell population in the series on UACC 903 cells [5] (5 μM) is 1.5; in the series on UACC 903 cells [5] (10 μM), 7.6; with UACC 903 cells [5] (15 μM), 15.9. For the same compound, in the series on UACC 903 cells [6], the “cellular apoptosis with increasing concentrations (caspase-3/7 activity, words)” value is given as “increase cellular apoptosis”. For the same compound, the “fold more effective than PBITC at inducing apoptosis” value in the series on UACC 903 cells [6] (caspase-3/7 activity, 5-15 μM) was ~2 fold.
In the series with UACC 903 cells [5] (15 μM), `N#C[Se]CCCCCCc1ccccc1` [PHSC, Phenylhexyl selenocyanate] returned a G0/G1 cell population of 61.4, a G2/M cell population of 11.5, a S cell population of 26.9 and a subG0/G1 cell population of 2.4.
Regarding `S=C=NCCCCCCc1ccccc1` [PHITC, Phenylhexylisothiocyanate], the “tumor burden” value with UACC 903 melanoma cells [1] (setting [9]) and in the series on 1205 Lu melanoma cells [7] was “ineffective at reducing tumor burden” in each case. Further, the half-maximal inhibitory concentration (IC50) in the series with UACC 903 melanoma cells [2] amounted to 15 ± 2 µM; in the series with WM115 melanoma cells it was 8 ± 1 µM; in the series with T-98-G, 26 ± 2 µM; in the series with Caco-2, 49 ± 9 µM; in the series with HT-1080, 29 ± 3 µM; in the series on PC-3, 17 ± 1 µM. The values for the IC50 with 1205 Lu melanoma cells [3] and in the series on MDA-MB-231 were 11 ± 4 µM and 24 ± 2 µM, respectively. The “proliferative potential with increasing concentrations” value in the series on UACC 903 cells [4] is “decreased proliferative potential”. Further, the results for the G0/G1 cell population in the series on UACC 903 cells [5] (5 μM), with UACC 903 cells [5] (10 μM) and in the series on UACC 903 cells [5] (15 μM) were 58.7, 43.8 and 40.7, respectively. The G2/M cell population with UACC 903 cells [5] (5 μM) is reported as 13.1; in the series with UACC 903 cells [5] (10 μM), 27.5; with UACC 903 cells [5] (15 μM), 29.7. Further, the S cell population in the series with UACC 903 cells [5] (5 μM) was 28.2; in the series on UACC 903 cells [5] (10 μM), 28.7; with UACC 903 cells [5] (15 μM), 29.6. Besides, the subG0/G1 cell population in the series on UACC 903 cells [5] (5 μM) was found to be 1.4; in the series on UACC 903 cells [5] (10 μM), 5.4; in the series on UACC 903 cells [5] (15 μM), 12.5. Further, the “cellular apoptosis with increasing concentrations (caspase-3/7 activity, words)” value with UACC 903 cells [6] was “increase cellular apoptosis”.
For `S=C=NCCc1ccccc1` [PEITC, phenylethyl isothiocyanate, reference compound], the IC50 was 12 ± 1 µM in the series with UACC 903 melanoma cells [2]; 12 ± 1 µM in the series with WM115 melanoma cells; > 100 µM with T-98-G; 14 ± 2 µM in the series with Caco-2; 15 ± 1 µM in the series on HT-1080; 24 ± 2 µM with PC-3. Also, the IC50 with 1205 Lu melanoma cells [3] was 24 ± 2 µM; with MDA-MB-231 it was 38 ± 6 µM.
With `[Se]=C=NCc1ccccc1` [ISC-1, Benzyl Isoselenocyanate], the “effect on tumor size” value with UACC 903 melanoma cells [1] (0.76 μmoles i.p. thrice per week, Example 30) is listed as “failed to show any effect”. Also, the IC50 in the series on UACC 903 melanoma cells [2] is 16 µM; in the series on WM115 melanoma cells it was > 25 µM; in the series with T-98-G, 43 ± 4 µM; with Caco-2, 13 ± 3 µM; with HT-1080, 13 ± 3 µM; in the series with PC-3, 24 ± 1 µM. Moreover, the IC50 in the series on 1205 Lu melanoma cells [3] was > 25 µM; with MDA-MB-231, 29 ± 2 µM.
Consider `S=C=NCc1ccccc1` [BITC, Benzyl isothiocyanate, reference compound], for which, in the series on UACC 903 melanoma cells [1] (2.5 micromoles i.p. thrice per week, FIG. 18C), the “effect on tumor size” value is “most effective”. Moreover, the IC50 was 15 µM in the series with UACC 903 melanoma cells [2]; 13 µM with WM115 melanoma cells; > 100 µM in the series with T-98-G; 15 ± 2 µM in the series with Caco-2; > 50 µM in the series on HT-1080; > 50 µM in the series on PC-3. The results for the half-inhibitory concentration (IC50) in the series with 1205 Lu melanoma cells [3] and in the series with MDA-MB-231 were > 25 µM and 42 ± 3 µM, respectively.
`S=C=NCCCCc1ccccc1` [PBITC, phenylbutylisothiocyanate, reference compound]: the “tumor burden” value in the series with UACC 903 melanoma cells [1] (setting [9]) and with 1205 Lu melanoma cells [7] was “ineffective at reducing tumor burden” in each case. For the same compound, the IC50 in the series on UACC 903 melanoma cells [2] amounted to 15 ± 1 µM; with WM115 melanoma cells, 7 ± 1 µM; with T-98-G it was 35 ± 1 µM; with Caco-2 it was 27 ± 2 µM; in the series with HT-1080 it was 15 ± 1 µM; in the series on PC-3 it was 24 ± 2 µM. The IC50 amounted to 19 ± 5 µM with 1205 Lu melanoma cells [3] and 27 ± 2 µM in the series on MDA-MB-231. Also, in the series on UACC 903 cells [4], the “proliferative potential with increasing concentrations” value was “decreased proliferative potential”. The G0/G1 cell population amounted to 37.4 with UACC 903 cells [5] (5 μM), 37.2 in the series on UACC 903 cells [5] (10 μM) and 42.1 with UACC 903 cells [5] (15 μM). The values for the G2/M cell population with UACC 903 cells [5] (5 μM), with UACC 903 cells [5] (10 μM) and in the series on UACC 903 cells [5] (15 μM) were 34.7, 31.9 and 27.4, respectively. Moreover, the figures for the S cell population with UACC 903 cells [5] (5 μM), with UACC 903 cells [5] (10 μM) and in the series on UACC 903 cells [5] (15 μM) were 27.8, 30.9 and 30.5, respectively. The subG0/G1 cell population in the series with UACC 903 cells [5] (5 μM) is given as 4.9; with UACC 903 cells [5] (10 μM), 10.4; with UACC 903 cells [5] (15 μM) it was 20.8. The “cellular apoptosis with increasing concentrations (caspase-3/7 activity, words)” value in the series with UACC 903 cells [6] is given as “increase cellular apoptosis”. Further, the “blood SGOT, SGPT, alkaline phosphatase, glucose and creatinine” value in series [8] (0.76 μmoles i.p. 3 times per week for 3 weeks, compared to vehicle DMSO) was “did not alter parameters”. The “basal urea nitrogen (BUN), creatinine and glucose levels” value in series [8] (treated versus control animals) was “not significantly different”.
